Laboratory results published in paper PMC12194305, “Assessing Bioconcentration and Biotransformation of BDE-47 In Vitro: The Relevance of Bioavailable and Intracellular Concentrations” (Journal of Xenobiotics, 2025).
“And” between values parts separate entries of the source, which are not always exact repeats. Identical values can stand only once. Like-named read-outs stand apart in the source and are kept apart here.

Key:
[1] = parameters: method as in PMID 36264934; conditions: dialysis, DMEM + 10% newborn calf serum, Cnom 5 μmol·L^−1, 1% DMSO; cited from earlier work
ZFL cells [2] = assay: Biotransformation of BDE-47 in ZFL cells (metabolites in cells and medium)
[3] = test system: zebrafish eleutheroembryos; parameters: method as in PMID 36705440; conditions: zebrafish embryos 48 h, larvae samples; cited from earlier work
HepG2 cells = test system: HepG2 cells; parameters: method as in PMID 37289209; conditions: HepG2 cells 48 h, 20 mg·L^−1 BDE-47, calculated with estimated Cfree percentage, cited from earlier work
[4] = Experimental determination of free bioavailable concentration (Cfree,exp) in exposure medium by SPME; assay type: in vitro ADME; conditions: for Cfree, exp: 24–48 h
Procedure: In parallel with the exposure experiment for the evaluation of bioaccumulation and biotransformation described in the previous sections, an experiment was performed to estimate experimentally the free bioavailable concentration (Cfree,exp) in the test medium. For this purpose, an experiment was designed to simulate the test conditions, and Cfree was determined using solid-phase microextraction (SPME), following the fiber method developed by Henneberger et al..
PDMS-coated glass microfibers (30 µm thick, 13.19 µL/m coating volume) were cut into 1.5 cm pieces and cleaned in methanol for more than 24 h prior to the experiment, with the solvent replaced at least three times. The cleaned and dried fiber was placed in a glass vial with 1 mL of sample exposure medium containing 1.8 and 2.6 mg·L^−1 BDE-47. Three replicates were prepared for each condition. A portion of the initial sample was stored at −20 °C until analysis. The vials were then sealed and incubated with rotation at 28 °C for 72 h until equilibrium of BDE-47 distribution among the fiber, medium, and binding to the predominant serum protein of the culture (Bovine serum albumin, BSA) was reached. Once at equilibrium, the fibers were extracted from the vials and desorbed with 400 µL isooctane for 24 h with rotation. Finally, the extract was analyzed by GC-MS-µECD, as described in Section 2.5. The concentration of BDE-47 in the initial sample (Cmed,0h) and in the resulting media after equilibration (Cmed,eq) was determined according to the procedure described in Section 2.5, to confirm the actual mass balance.
Since this study evaluates and discusses the behavior of BDE-47 in comparison to observations from a previous study with phenanthrene, as explained in the introduction section, the experimental Cfree of phenanthrene was also determined, as it had not been measured previously. In this case, the difference in the process was that PA fibers (36 µm thick, 16.71 µL/m coating volume) were used. Samples of 10 and 20 mg·L^−1 PHE were prepared, and the fibers and samples were incubated for 24–48 h until equilibrium was reached, and desorbed with hexane for 3 h.
To determine the free concentration, concentration in the SPME fiber (Cfiber) was first estimated using Equation (1) from the concentration measured in the desorption extract (Cdes), the desorption volume (Vdes) and the coating volume of the fiber (Vfiber). This volume was estimated according to the coating volume and the length of the fiber.(1) Cfiber=Cdes·Vdes/Vfiber
Next, Cfree,exp was determined at the time before the SPME fiber was added to the system, according to Equation (2). For this, the concentration measured in the fiber equilibrated with the medium (PDMS-BDE-47-BSA or PA-PHE-BSA), the concentration measured in the initial sample (Cmed,0h), and the partition constant of the equilibrium formed between the fiber and the medium (log DPDMS/medium; BDE-47 = 5.84 [25]; log DPA/medium; PHE = 6.69 [26]) were used.(2) Cfree=Cmed,0h·Vsample/Dfiber/medium·Cmed,0h·Vsample/Cfiber−Vfiber

ZFL cells [5] = test system: ZFL cells; parameters: method as in PMID 39103099; conditions: exposure to 10 mg·L^−1 PHE, previous study; cited from earlier work
[6] = parameters: method as in PMID 39103099; conditions: binding constant to BSA protein of FBS; cited from earlier work
[7] = partition constant PA fiber/medium; cited from earlier work
ZFL cells [8] = conditions: cited from earlier work; for Ratio MBM/experimental of internal concentration: ref De Oro-Carretero and Sanz-Landaluze 2024

Question: With CC/C(=C(\c1ccccc1)c1ccc(OCCN(C)C)cc1)c1ccccc1 [tamoxifen] as the molecule, how does the “decrease of free concentration from the initial concentration” value [1] read?
Answer: up to 50%

Question: For COc1cc(Oc2ccc(Br)cc2Br)c(Br)cc1Br [5-MeO, 5-MeO-BDE-47], which “biotransformation ratio metabolite / free bioavailable BDE-47 concentration” value (ZFL cells [2]; cell samples, 24 h, Cnominal BDE-47 1.6 mg·L^−1) is on record?
Answer: 0.11

Question: And the “biotransformation ratio metabolite / free bioavailable BDE-47 concentration” value (ZFL cells [2]; cell samples, 24 h, Cnominal BDE-47 2.8 mg·L^−1)?
Answer: 0.17

Question: And the “biotransformation ratio metabolite / free bioavailable BDE-47 concentration” value (ZFL cells [2]; cell samples, 48 h, Cnominal BDE-47 1.6 mg·L^−1)?
Answer: 0.12

Question: And the “biotransformation ratio metabolite / free bioavailable BDE-47 concentration” value (ZFL cells [2]; cell samples, 48 h, Cnominal BDE-47 2.8 mg·L^−1)?
Answer: 0.18

Question: What about the “biotransformation ratio metabolite / free bioavailable BDE-47 concentration” value (ZFL cells [2]; cell samples, 72 h, Cnominal BDE-47 1.6 mg·L^−1) of the same molecule?
Answer: 0.15

Question: And the “biotransformation ratio metabolite / free bioavailable BDE-47 concentration” value (ZFL cells [2]; cell samples, 72 h, Cnominal BDE-47 2.8 mg·L^−1)?
Answer: 0.20

Question: What about the “biotransformation ratio metabolite / BDE-47 concentration” value [3] of the same molecule?
Answer: 0.06–0.13

Question: What about the “biotransformation ratio metabolite / BDE-47 concentration” value (HepG2 cells; cell samples) of the same molecule?
Answer: 0.10

Question: With Oc1cc(Oc2ccc(Br)cc2Br)c(Br)cc1Br [5-OH, 5-OH-BDE-47] as the molecule, how does the “biotransformation ratio metabolite / BDE-47 concentration” value (HepG2 cells; medium samples) read?
Answer: 0.2

Question: Which results are given for c1ccc2c(c1)ccc1ccccc12 [PHE, phenanthrene]?
Answer: % Cfree, exp ([4]; Cnom 10 mg·L^−1, % of total concentration): 2.4% and 2.4 ± 0.2%; Cfree, exp ([4]; Cnom 10 mg·L^−1, PA fiber): (0.22 ± 0.02) mg·L^−1; % Cfree, exp ([4]; Cnom 20 mg·L^−1, % of total concentration): 2.9% and 2.9 ± 0.2%; Cfree, exp ([4]; Cnom 20 mg·L^−1, PA fiber): (0.52 ± 0.04) mg·L^−1; BCF48 h (ZFL cells [5]): 393 L/kg; BCFk (ZFL cells [5]): 986 L/kg; log DBSA/W [6]: 3.81; log DPA/medium [7]: 6.69; Ratio MBM/experimental of internal concentration (ZFL cells [8]; 24h, 10 mg·L-1, ZFL cells): 491%; Ratio MBM/experimental of internal concentration (ZFL cells [8]; 24h, 50 mg·L-1, ZFL cells): 510%; Ratio MBM/experimental of internal concentration (ZFL cells [8]; 48h, 10 mg·L-1, ZFL cells): 532%; Ratio MBM/experimental of internal concentration (ZFL cells [8]; 48h, 50 mg·L-1, ZFL cells): 449%; Ratio MBM/experimental of internal concentration (ZFL cells [8]; 72h, 10 mg·L-1, ZFL cells): 421%; Ratio MBM/experimental of internal concentration (ZFL cells [8]; 72h, 50 mg·L-1, ZFL cells): 402%; BCFMBM (ZFL cells [8]; ZFL cells, previous study): 1656 L/kg; ratio of MBM vs. experimental Ccell (ZFL cells [8]; ZFL cells, previous study): above 100%; free concentration as % of total concentration (ZFL cells [8]; assays with ZFL cells, previous study): 1.7%

Question: With Oc1cc(Br)ccc1Oc1ccc(Br)cc1Br [2′-OH-BDE-28] as the molecule, how does the “detection of the metabolite in ZFL cell and medium samples on exposure to BDE-47” value (ZFL cells [2]; BDE-47 at 1.6 and 2.8 mg·L^−1, 24–72 h) read?
Answer: significant and increasing concentration over time

Question: Which results are given for Oc1c(Br)ccc(Oc2ccc(Br)cc2Br)c1Br [3-OH, 3-OH-BDE-47]?
Answer: biotransformation ratio metabolite / free bioavailable BDE-47 concentration (ZFL cells [2]; medium samples, 24 h, Cnominal BDE-47 1.6 mg·L^−1): 0.07; biotransformation ratio metabolite / free bioavailable BDE-47 concentration (ZFL cells [2]; medium samples, 24 h, Cnominal BDE-47 2.8 mg·L^−1): 0.08; biotransformation ratio metabolite / free bioavailable BDE-47 concentration (ZFL cells [2]; medium samples, 48 h, Cnominal BDE-47 1.6 mg·L^−1): 0.08; biotransformation ratio metabolite / free bioavailable BDE-47 concentration (ZFL cells [2]; medium samples, 48 h, Cnominal BDE-47 2.8 mg·L^−1): 0.08; biotransformation ratio metabolite / free bioavailable BDE-47 concentration (ZFL cells [2]; medium samples, 72 h, Cnominal BDE-47 1.6 mg·L^−1): 0.09; biotransformation ratio metabolite / free bioavailable BDE-47 concentration (ZFL cells [2]; medium samples, 72 h, Cnominal BDE-47 2.8 mg·L^−1): 0.15; biotransformation ratio metabolite / BDE-47 concentration (HepG2 cells; medium samples): 0.13
